Where two headings read alike, the source gives them in different places. Marks after values point to notes of the source that are not given here.
How the values were obtained:
MCF-7/ADR cells [1] = assay: ADR/VCR accumulation study in MCF-7/ADR cells; details: ADR/VCR 5 µM, test compound 0.2, 2, 20 µM, 1 h
Protocol: (§5) MCF-7 cells (1×10^5/Well) were incubated in 24-well plates. […] After 1 h incubation, the compound solution was aspirated to stop further accumulation, and the monolayers were rinsed with cold Hank’s solution for three times. The drug content was detected by lysing the cells with ultrasound, and then the single well lysate was transferred to a plastic EP tube for further analysis. The protein concentration of the cells was measured using Coomassie brilliant blue.

MCF-7/S cells [2] = assay: Trypan blue exclusion assay, MCF-7/S cells; assay type: cell-based; details: 0.2, 2 and 20 µM with ADR 0.08 µM or VCR 0.5 µM, 48 h
Protocol: (§1) MCF-7 (human breast carcinoma cells) and MCF-7/ADR (P-gp-overexpressing derivative cells) cell lines were obtained from Blood Diseases Hospital, Chinese Academy of Medica ([Shi et al., 2011]). The cells were routinely maintained in RPMI 1640 with 10% heat-inactivated fetal bovine serum (FBS), 1% non-essential amino acid solution, 0.1 mg/ml streptomycin, and 100 units/ml penicillin. Caco-2 cells were purchased from American Type Culture Collection (ATCC, Rockville, MD, United States). Vector-MDCK and MDR1-MDCK cells were purchased from PharmaResources Co., Ltd. (China). Both Caco-2 and MDCK cells were maintained at Dulbecco’s modified Eagle’s medium (DMEM) with 10% FBS, 1% non-essential amino acid solution, 0.1 mg/ml streptomycin, and 100 units/ml penicillin. MCF-7/ADR cells were treated with […] and were cultured in ADR-free medium for more than 14 days before the experiment. All cells were cultured at 37°C in a humidified atmosphere of 5% CO2.
(§2) Trypan blue exclusion assay was used to measure the viability of cells to compounds. Briefly, MCF-7/sensitive (MCF-7/S) and MCF-7/ADR cells were diluted into the density of 0.5×10^4 cells/ml, then cells (1 ml) were seeded in culture plates. […]. The viable and dead cells (stained in blue) were counted by haemacytometer.

P-gp [3] = target: T1, P-gp (Homo sapiens, UniProt P08183); assay: MDCK-MDR1 transport study, inhibition of VCR transport; details: for Folds (RE) of VCR: vs control
Protocol: Briefly, MDCK-MDR1 cells (1×10^5/Well) were seeded onto […] pore-size transwell inserts (Millipore, MA, United States) in 24-well plates.
(§3) The cells were rinsed with warmed Hank’s balanced salt solution (HBSS), and the inserts were incubated for 20 min at 37°C. […] Aliquots (50 µl) were taken from the receiver compartment at intervals of 30, 60, 90, and 120 min and replaced with fresh buffer. In the study, verapamil (VER), known P-gp inhibitor, was selected as positive control.
(§4) The apparent permeability values (Papp) were evaluated in all experiments according to the following equation: Papp=dQ/dt/AC0 (1) where A means the insert area and C0 represents the initial concentration. dQ/dt represents the slope of the cumulative content transported during the time course of the period studied.

MCF-7/S cells [4] = assay: ADR/VCR accumulation study in MCF-7/S cells; details: ADR/VCR 5 µM, test compound 0.2, 2, 20 µM, 1 h
Protocol: as §5

P-gp [5] = target: T1, P-gp; details: for Folds (RE) of digoxin: vs control
Protocol: Briefly, MDCK-MDR1 cells (1×10^5/Well) were seeded onto 0.4 mm pore-size transwell inserts (Millipore, MA, United States) in 24-well plates.

MCF-7/ADR cells [6] = assay: Hoechst assay (apoptosis); assay type: cell-based, human
Protocol: MCF-7/ADR cells were collected and cultured at the density of 2.0 × 10^5/well in 24-well plates. […] The cells were dyed with Hoechst 33,342 (Beyotime, Shanghai, China) in the dark at 37°C for 30 min after washing with phosphate buffered saline (PBS). The morphological changes of the nucleus were evaluated by a fluorescence microscope.

P-gp [7] = target: T1, P-gp; assay: Caco-2 uptake study (digoxin, VCR)
Protocol: Briefly, the cells (1×10^5/Well) were cultured in 24-well plates, and culture medium was changed every other day. The uptake study was taken when the monolayers formed. […] After 2 h incubation, the drug solution was removed to terminate reaction, and the monolayers were washed three times with cold Hank’s solution. The other steps were taken according to the above process in Adriamycin/Vincristine Accumulation Study.

P-gp [8] = target: T1, P-gp; assay: MDR1 shift assay (UIC2 binding); assay type: cell-based; set-up: endogenous in cells; host or cells: MCF-7/ADR; details: 25 µM, MCF-7/ADR cells, vs solvent control
Protocol: The monoclonal antibody UIC2 (2.5 μl) was added and incubated for 15 min, then 1 ml of cold binding buffer was used to terminate reaction. The cells were rinsed twice, followed by adding cold phycoerythrin-labeled anti-mouse IgG (250 μl) for another 15 min in the dark. Finally, cells were rinsed and incubated in cold binding buffer (250 μl) and further evaluated by flow cytometer (Cytomics FC 500; Beckman Coulter, Fullerton, CA). In this study, vincristine (25 µM) was set as positive control.

MCF-7/ADR cells [9] = assay: Trypan blue exclusion assay, MCF-7/ADR cells; assay type: cell-based
Protocol: as §1, §2

[10] = tested on: MDCK-MDR1 cell monolayers; assay: MDCK-MDR1 transport of BA/23-HBA with or without verapamil; details: for Folds (RE): +VER (verapamil 20 µM) vs without VER
Protocol: Briefly, MDCK-MDR1 cells (1×10^5/Well) were seeded onto […] pore-size transwell inserts (Millipore, MA, United States) in 24-well plates. Cells were cultured for 5–7 days, when the transepithelial electrical resistance (TEER) values were 120–240 Ω cm^2.
as §3, §4
The efflux ratio (ER) was detected according to the ratio of Papp as the following equation: ER=Papp(B−A)/Papp(A−B) (2)

[11] = digoxin 5 µM with test compound 0.2 µM
[12] = digoxin 5 µM with test compound 2 µM
[13] = digoxin 5 µM with test compound 20 µM
[14] = compound 0.2 µM, +VER (verapamil 20 µM)
[15] = compound 0.2 µM, without verapamil
[16] = compound 2 µM, +VER (verapamil 20 µM)
[17] = compound 2 µM, without verapamil
[18] = compound 20 µM, +VER (verapamil 20 µM)
[19] = compound 20 µM, without verapamil

T1 sequence (P08183 whole entry): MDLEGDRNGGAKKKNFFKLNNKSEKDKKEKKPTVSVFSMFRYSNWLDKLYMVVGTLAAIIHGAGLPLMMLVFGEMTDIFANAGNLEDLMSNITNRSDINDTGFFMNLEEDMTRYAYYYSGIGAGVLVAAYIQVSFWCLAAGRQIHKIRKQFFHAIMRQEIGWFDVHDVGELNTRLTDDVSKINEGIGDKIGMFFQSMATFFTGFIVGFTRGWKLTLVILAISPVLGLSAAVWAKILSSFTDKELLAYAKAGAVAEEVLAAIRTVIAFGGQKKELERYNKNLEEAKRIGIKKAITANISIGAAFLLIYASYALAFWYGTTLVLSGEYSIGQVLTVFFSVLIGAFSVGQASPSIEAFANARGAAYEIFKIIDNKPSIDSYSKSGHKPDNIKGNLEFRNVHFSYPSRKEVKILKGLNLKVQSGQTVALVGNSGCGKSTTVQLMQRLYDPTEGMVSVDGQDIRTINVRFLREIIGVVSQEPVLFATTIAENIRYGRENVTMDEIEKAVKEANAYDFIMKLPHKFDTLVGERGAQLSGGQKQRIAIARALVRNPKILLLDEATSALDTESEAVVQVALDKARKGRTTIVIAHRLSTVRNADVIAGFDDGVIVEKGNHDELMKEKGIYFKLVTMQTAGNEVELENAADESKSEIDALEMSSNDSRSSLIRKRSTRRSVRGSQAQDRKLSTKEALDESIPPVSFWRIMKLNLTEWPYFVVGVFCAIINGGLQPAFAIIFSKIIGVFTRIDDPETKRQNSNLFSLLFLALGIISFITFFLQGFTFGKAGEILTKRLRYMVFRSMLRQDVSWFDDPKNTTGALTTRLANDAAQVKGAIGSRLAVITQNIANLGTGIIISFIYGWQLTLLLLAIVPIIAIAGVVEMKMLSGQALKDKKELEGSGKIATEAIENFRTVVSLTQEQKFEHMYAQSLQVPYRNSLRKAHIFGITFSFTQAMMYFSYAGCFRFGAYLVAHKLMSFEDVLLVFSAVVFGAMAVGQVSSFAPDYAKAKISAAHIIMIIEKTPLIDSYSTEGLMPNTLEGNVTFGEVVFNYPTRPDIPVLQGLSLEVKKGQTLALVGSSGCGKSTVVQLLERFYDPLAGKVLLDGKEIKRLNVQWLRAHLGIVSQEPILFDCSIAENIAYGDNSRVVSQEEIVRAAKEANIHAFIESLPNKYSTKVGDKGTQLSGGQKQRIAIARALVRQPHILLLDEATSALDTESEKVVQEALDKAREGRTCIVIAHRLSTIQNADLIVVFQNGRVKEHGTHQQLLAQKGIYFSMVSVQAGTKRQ

Structure (SMILES): C=C(C)[C@@H]1CC[C@]2(C(=O)O)CC[C@]3(C)[C@H](CC[C@@H]4[C@@]5(C)CC[C@H](O)[C@@](C)(CO)[C@@H]5CC[C@]43C)[C@@H]12 [23-HBA, 23-hydroxybetulinic acid]
- Intracellular accumulation of ADR/VCR in resistant MCF-7 cells (MCF-7/ADR cells [1]): obviously increased
- Effect on cytotoxicity of MCF-7/S cells to ADR or VCR (MCF-7/S cells [2]): neither 23-HBA nor BA showed significant effects on cytotoxicity
- Papp A→B of VCR (P-gp [3]; VCR with test compound 0.2 µM): 0.69 ± 0.30 ×10^−6 cm s^−1
- Papp B→A of VCR (P-gp [3]; VCR with test compound 0.2 µM): 4.45 ± 1.12 ×10^−6 cm s^−1
- RE (net efflux) of VCR (P-gp [3]; VCR with test compound 0.2 µM): 6.41
- Folds (RE) of VCR (P-gp [3]; VCR with test compound 0.2 µM): 1.70
- Papp A→B of VCR (P-gp [3]; VCR with test compound 2 µM): 2.49 ± 0.59 ×10^−6 cm s^−1
- Papp B→A of VCR (P-gp [3]; VCR with test compound 2 µM): 0.39 ± 0.01 ×10^−6 cm s^−1
- RE (net efflux) of VCR (P-gp [3]; VCR with test compound 2 µM): 0.16
- Folds (RE) of VCR (P-gp [3]; VCR with test compound 2 µM): 70.15
- Papp A→B of VCR (P-gp [3]; VCR with test compound 20 µM): 2.19 ± 1.74 ×10^−6 cm s^−1
- Papp B→A of VCR (P-gp [3]; VCR with test compound 20 µM): 0.48 ± 0.08 ×10^−6 cm s^−1
- RE (net efflux) of VCR (P-gp [3]; VCR with test compound 20 µM): 0.22
- Folds (RE) of VCR (P-gp [3]; VCR with test compound 20 µM): 49.32
- Accumulation of ADR/VCR in sensitive MCF-7 cells (MCF-7/S cells [4]): little impact was observed
- RE (net efflux) of digoxin (P-gp [5]; [11]): 31.57
- Folds (RE) of digoxin (P-gp [5]; [11]): 1.16
- RE (net efflux) of digoxin (P-gp [5]; [12]): 27.96
- Folds (RE) of digoxin (P-gp [5]; [12]): 1.31
- RE (net efflux) of digoxin (P-gp [5]; [13]): 2.69
- Folds (RE) of digoxin (P-gp [5]; [13]): 13.61
- Number of apoptosis cells, single agent (MCF-7/ADR cells [6]; 20 µM alone, vs control group): not obviously different with the control group
- Apoptosis caused by ADR in combination exposure (MCF-7/ADR cells [6]; 2 and 20 µM with ADR 3 µM): dose-dependent (2 and 20 μM) increase in the apoptosis caused by ADR
- Inhibitory effect compared with verapamil (20 µM) in Caco-2 cells (P-gp [7]; 20 µM): higher than that of verapamil
- Effect on uptake of VCR and digoxin in Caco-2 cells (P-gp inhibition) (P-gp [7]; 0.2, 2 and 20 µM, 2 h): showed dose-dependent increase on the penetration of VCR and digoxin
- Fluorescence intensity of UIC2 binding (MDR1 shift) (P-gp [8]): fluorescence intensity showed slight increase
- Cytotoxicity of combination exposure with ADR to MCF-7/ADR (MCF-7/ADR cells [9]; 0–20 µM with ADR 3 µM): showed significant cytotoxicity to MCF-7/ADR
- Cell toxicity as a single agent (MCF-7/ADR cells [9]; 0–20 µM, single agent): no cell toxicity was detected
- Effect on cytotoxicity of MCF-7/ADR cells to ADR or VCR (MCF-7/ADR cells [9]; 0.2, 2 and 20 µM with ADR 3 µM or VCR 6 µM, 48 h): can increase cytotoxicity of MCF-7/ADR cells to ADR or VCR in concentration-dependent manner
- ER values ([10]; MDCK-MDR1 cells, all the concentrations (0.2–20 µM)): less than 1.5
- Papp A-B [10, 14]: 8.49 ± 1.39 ×10^−6 cm s^−1
- Papp B-A [10, 14]: 5.20 ± 0.59 ×10^−6 cm s^−1
- RE (net efflux) [10, 14]: 0.61**
- Folds (RE) ([10]; compound 0.2 µM): 0.41
- Papp A-B [10, 15]: 6.73 ± 0.09 ×10^−6 cm s^−1
- Papp B-A [10, 15]: 10.01 ± 1.38 ×10^−6 cm s^−1
- RE (net efflux) [10, 15]: 1.49
- Papp A-B [10, 16]: 10.03 ± 3.22 ×10^−6 cm s^−1
- Papp B-A [10, 16]: 7.83 ± 0.32 ×10^−6 cm s^−1
- RE (net efflux) [10, 16]: 0.78*
- Folds (RE) ([10]; compound 2 µM): 0.63
- Papp A-B [10, 17]: 7.07 ± 0.64 ×10^−6 cm s^−1
- Papp B-A [10, 17]: 8.75 ± 0.31 ×10^−6 cm s^−1
- RE (net efflux) [10, 17]: 1.24
- Papp A-B [10, 18]: 12.76 ± 1.13 ×10^−6 cm s^−1
- Papp B-A [10, 18]: 7.47 ± 1.64 ×10^−6 cm s^−1
- RE (net efflux) [10, 18]: 0.59
- Folds (RE) ([10]; compound 20 µM): 0.82
- Papp A-B [10, 19]: 5.95 ± 0.94 ×10^−6 cm s^−1
- RE (net efflux) [10, 19]: 0.72

Structure (SMILES): CC[C@]1(O)C[C@H]2CN(CCc3c([nH]c4ccccc34)[C@@](C(=O)OC)(c3cc4c(cc3OC)N(C=O)[C@H]3[C@@](O)(C(=O)OC)[C@H](OC(C)=O)[C@]5(CC)C=CCN6CC[C@]43[C@@H]65)C2)C1 [VCR, Vincristine, reference compound]
- Papp A→B at 120 min (P-gp [3]; dog, MDCK-MDR1): 0.35 ± 0.17 ×10⁻⁶ cm/s
- Papp B→A at 120 min (P-gp [3]; dog, MDCK-MDR1): 3.86 ± 0.71 ×10⁻⁶ cm/s
- efflux ratio at 120 min (P-gp [3]; dog, MDCK-MDR1): 10.9

Source: paper PMC8714961, “Involvement of P-gp on Reversing Multidrug Resistance Effects of 23-Hydroxybetulinic Acid on Chemotherapeutic Agents” (Frontiers in Pharmacology, 2021)
